Measured values published in patent US20080306007A1, “AGENTS FOR PROPHYLAXIS OR TREATMENT OF NEUROLOGICAL RELATED DISEASES AND CONDITIONS” (Newcastle Innovation Limited, priority 2007, published 2008).

Experiments:
[1] = system: synaptosomes (glutamate release); assay: 4-AP evoked glutamate release (repetitive stimulation) in synaptosomes; assay type: cell-based, rat; conditions: 4-AP 1 mM
Experimental: (§1) In all SV recycling studies synaptosomes were prepared from rat cerebral cortex by centrifugation on discontinuous percoll gradients (Dunkley et al. 1986). The glutamate release assay was performed as described before (Cousin and Robinson 2000a). Data is presented as Ca^2+-dependent glutamate release, calculated as the difference between release in plus and minus Ca^2+ solutions. Penetratin peptides (Genemed Synthesis) were preincubated with the synaptosomes for 30 min before stimulation and had no effect on Ca^2+-independent release of glutamate.
Selective inhibition of SVE by the phospho-box peptide should produce a rundown or fatigue of glutamate release after repeated stimuli, since the supply of SVs will progressively decline. To produce repetitive stimulation in synaptosomes the K^+ channel blocker 4-aminopyridine (4-AP) was used. This produces a tetrodotoxin-sensitive repetitive firing that mimics in vivo stimulation. It has previously been reported that 4-AP evokes continual SV recycling for at least 15 minutes in synaptosomes. […] The inset is also zoomed on the first 3 min from 4-AP addition (which was at 60 s) to highlight the lack of effect during the first 45s.

[2] = biological target: T1, dynamin I-syndapin I complex (Rattus norvegicus, UniProt Q9Z0W5); assay: Peptide disruption of immunoprecipitated dynamin I-syndapin I complex from nerve terminals; assay type: binding; conditions: syndapin I or dynamin I immunoprecipitates incubated with peptide
T1 construct: Syndapin I or dynamin I were immunoprecipitated from nerve terminals; from tissue; host or cells: rat brain crude (P2) synaptosomes
Experimental: To determine whether the phospho-box sequence might account for syndapin I recruitment to dynamin I, the ability of a DynI769-784AA peptide (FIG. 5a) to disrupt their interaction was tested. Syndapin I or dynamin I were immunoprecipitated from nerve terminals and the individual protein complexes were incubated with DynI769-784AA (SEQ ID No. 8) peptide (see below). Their interaction in both cases was reduced by the peptide, as indicated by the specific release of either binding partner from the bead-bound complex (FIG. 4c). No elution of endophilin I (FIG. 4c) or amphiphysin I (data not shown) was detected, highlighting the specificity of the interaction.
Crude (P2) synaptosomes were prepared from rat brain and lysed as described in Example 1.1.3. Synaptosome lysates were incubated with 5 μg of anti-syndapin I or […] pre-bound to protein G-sepharose (Roche) for 3 h at 4° C. Beads were washed with ice-cold PBS, eluted in SDS-PAGE sample buffer and blotted with anti-syndapin I, anti-endophilin I and anti-dynamin I antibodies.

[3] = system: synaptosomes (synaptic vesicle turnover); assay: SV turnover assay (FM2-10 loading/unloading) in synaptosomes; assay type: cell-based, rat
Experimental: as §1
(§2) Loading of FM2-10 (Molecular Probes) into recycling synaptosomal SVs was measured as previously described. Data is presented as Ca^2+-dependent FM2-10 unloading, which is the difference between release after loading in plus and minus Ca^2+ solutions. Where indicated, synaptosomes were preincubated with penetratin peptide for 30 min prior to stimulation of FM2-10 loading. […] The same assay was used to monitor the effect of penetratin peptide on SV exocytosis. However, in this instance, the synaptosomes were loaded with FM2-10 in plus Ca^2+ Krebs-like solution and, where indicated, were preincubated with penetratin peptide for 30 min prior to stimulation of FM2-10 unloading. Data is presented as Ca^2+-dependent FM2-10 unloading. The SV internalisation assay was performed as previously described.
SVE in synaptosomes was measured to determine whether the phosphorylation sites in dynamin I play a direct role in SVE. Since isolated nerve terminals cannot be transfected with DNA, a membrane-permeable peptide strategy was employed. Mimetic peptides (DynI769-784AA (SEQ ID No. 8) and DynI769-784EE (SEQ ID No. 9)) were designed corresponding to the amino acid sequence of the dynamin I phospho-box (FIG. 5a) and were tagged with a penetratin heptapeptide RRMKWKK (SEQ ID No. 12) to facilitate their delivery into synaptosomes. Briefly, synaptosomes were preincubated in the presence or absence of either penetratin peptide (250 μM) prior to FM2-10 loading stimulated by 30 mM KCl. Accumulated FM2-10 was unloaded by another KCl stimulus (indicated by the solid bar). […] If the phosphorylation-regulated syndapin I interaction itself is essential for SVE, the penetratin-linked peptides may inhibit the process. […] The DynI769-784AA peptide (250 μM) inhibited turnover by more than 40% (57.1±2.1% of control), compared to less than 20% with the DynI769-784EE peptide (250 μM, 81.1±2.4% of control).

[4] = system: synaptosomes (SV exocytosis); assay: FM2-10 unloading (SV exocytosis) assay in synaptosomes; assay type: cell-based, rat; conditions: evoked by 30 mM KCl; peptide preincubated 30 min before unloading
Experimental: as §2
A block in SV turnover cannot be ascribed to an inhibition of SVE until an effect on exocytosis has been excluded. Two independent exocytosis assays were conducted to assess this: endogenous glutamate release and FM2-10 unloading. […] Finally, the extent of SVE inhibition by the peptides was quantified by calculating “retrieval efficiency” which takes into account prior exocytosis; a value of less than one indicating a selective SVE inhibition. […]

T1 sequence (Q9Z0W5 whole entry, one chain of several): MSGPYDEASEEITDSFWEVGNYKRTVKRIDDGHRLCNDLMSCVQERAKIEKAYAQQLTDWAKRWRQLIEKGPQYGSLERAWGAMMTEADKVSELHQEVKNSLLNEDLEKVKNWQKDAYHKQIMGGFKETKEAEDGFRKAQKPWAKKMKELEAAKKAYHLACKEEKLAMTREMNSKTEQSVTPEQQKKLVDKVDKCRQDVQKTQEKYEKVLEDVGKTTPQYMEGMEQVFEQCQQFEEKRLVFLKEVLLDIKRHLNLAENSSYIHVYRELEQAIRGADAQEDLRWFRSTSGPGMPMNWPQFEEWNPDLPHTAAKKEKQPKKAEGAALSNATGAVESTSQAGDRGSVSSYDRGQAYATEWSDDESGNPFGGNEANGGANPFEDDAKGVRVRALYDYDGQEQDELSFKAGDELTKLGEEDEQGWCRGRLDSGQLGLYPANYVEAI

DynI769-784AA: Dynamin I phospho-box mimetic peptide (residues 769-784), AA mutant, tagged with penetratin heptapeptide RRMKWKK (RRMKWKKPAGRRAPTSAPTPQRR; listed as Rattus norvegicus)
effect on the first 45 sec of 4-AP evoked exocytosis ([1]; first 45 sec): without effect
effect on 4-AP evoked glutamate release with continued stimulation ([1]; repetitive stimulation): activity-dependent depression of release that increased with continued stimulation
dynamin I-syndapin I interaction (release of binding partner from bead-bound complex) [2]: reduced
inhibition of SV turnover ([3]; peptide 250 μM): more than 40%
SV turnover ([3]; peptide 250 μM, 30 min preincubation, FM2-10 loading with 30 mM KCl): 57.1±2.1 % of control
retrieval efficiency (SV turnover/exocytosis) ([3]; using data from either exocytosis assay, value below one = selective SVE inhibition): robust inhibition
FM2-10 unloading [4]: 81.1±0.8 % of control
